{
  "source": "patent US20260374773A1",
  "about": "“MULTI-CYCLIC IRAK AND FLT3 INHIBITING COMPOUNDS AND USES THEREOF” (CHILDREN'S HOSPITAL MEDICAL CENTER, priority 2022, published 2026)",
  "key": {"[1]": {"system": "THP1 cells", "assay": "Combination drug screening with venetoclax, Cell Titer Glo, THP1", "format": "cell-based", "details": "compound 0-20 μM, venetoclax 0-2 μM, 10 × 10, 48 h, negative = synergy", "description": "(§1) Combination drug therapy has the potential to produce enhanced effects with lower side effects not obtained using either agent alone, or beyond the additive effect of the different concentrations of the two different agents. To determine whether enhanced effects are observed in different drug combinations, combination drug screening was performed as previously described (Mathews-Griner, L. A. et al., Proc. Nat. Acad. Sci., 2014, 111:2349-2354; Lin, G. L. et al., Sci. Trans. Med., 2019, 11: eaaw0064). Briefly, 10 nL of compounds were acoustically dispensed into 1536-well white polystyrene tissue culture-treated plates with an Echo 550 acoustic liquid handler (Labcyte). Cells were then added to compound-containing plates at a density of 500-cells/well in 5 μL of medium. A 10-point custom concentration range was used for all listed drugs in a 10×10 matrix. Plates were incubated for 48 hours at standard incubator conditions covered by a stainless steel gasketed lid to prevent evaporation. 48 hours post compound addition, 3 μL of Cell Titer Glo (Promega) were added to each well and plates were incubated at room temperature for 15 minutes with the stainless-steel lid in place. Luminescence readings were taken using a Viewlux imager (PerkinElmer) with a 2 second exposure time per plate.\n(§2) Each compound was studied in combination with venetoclax at two concentration ranges of compound and venetoclax, respectively (for a total of 4 combination dose-response curves). The dose combinations that yielded the optimal synergy score, measured as excess HSA, which are reported in Tables 23 and 24 for the FLT3 mutant cell line MOLM14 (D835Y) and the FLT3 WT cell line THP1, respectively.\n(§3) Table 24 provides combination outcomes for representative compounds with venetoclax in the Cell Titer Glo assay in THP1 (FLT3 wild type) cells at 48 hours. The table provides relative excess HSA values for compounds of the disclosure used in combination with venetoclax compared to gilteritinib hemifumarate used in combination with venetoclax. A negative excess HSA score illustrates that the drug combination is better than either drug alone, wherein greater synergy is observed at larger negative values of the excess HSA score.\n(§4) Excess HSA is a measure of synergy vs. additivity or antagonism, wherein a negative excess HSA value is indicative of synergy. More information on excess HSA scores can be found in Vlot, Anna H. C. et al., Drug Discovery Today, 2019, 24(12):2286-2298. […] However, different methodologies may yield different numerical scores, and different definitions of what constitutes a deviation from mere additivity vs true drug synergy. The large negative excess HSA values provided in Tables 23 and 24 illustrate that multiple members of this structural class synergize with venetoclax. The degree to which combination therapy has to potential to produce enhanced effects with lower side effects not obtained using either agent alone, or beyond the additive effect of the different concentrations of the two different agents depends on the nature of the drugs used in the combination, and the specific doses/concentrations at which they are ultimately used in the therapeutic regimen. A negative excess HSA score illustrates that the drug combination is better than either drug alone (at the concentrations being studied). […] However, the utility in certain drug combinations vs. others should not be distinguished based on cutoffs between excess HSA scores, because the score itself is only a relative indicator that is completely dependent on experimental design and is not an absolute number. Furthermore, the concept of what constitutes clinically meaningful drug synergy is something that is still being debated, not only between pharmacologists and physicians, but amongst pharmacologists themselves. […]"}, "[2]": {"system": "MOLM14 (D835Y) cells", "assay": "Combination drug screening with venetoclax, Cell Titer Glo, MOLM14 (D835Y)", "format": "cell-based", "design": "key: relative excess HSA score; more negative = greater synergy", "details": "compound 0-0.5 μM, venetoclax 0-20 μM, 10 × 10, 48 h, negative = synergy", "description": "as §1, §2\nas §3, with “23” for “24”, “MOLM14 (D835Y)” for “THP1 (FLT3 wild type)”, “cells (a FLT3 mutant cell line)” for “cells”\nas §4"}, "[3]": {"system": "Menin-KMT2A (MLL)", "details": "pre-clinical studies; cited from earlier work"}, "[4]": {"system": "E-selectin", "details": "with chemotherapy; AML mouse models; cited from earlier work"}, "[5]": {"system": "subjects with myelodysplastic syndrome", "details": "after receiving azacitidine; cited from earlier work"}, "[6]": {"system": "AML cell lines", "details": "combined with a concentration of an exemplary IRAK inhibitor; cited from earlier work"}},
  "data": [
    {"smiles": "CCc1nc(C(N)=O)c(Nc2ccc(N3CCC(N4CCN(C)CC4)CC3)c(OC)c2)nc1NC1CCOCC1", "note": "[Gilteritinib hemifumarate, Gilteritinib, reference compound]", "values": [
      {"measurement": "Excess HSA", "setting": "[1]", "value": "−1626"},
      {"measurement": "Excess HSA", "setting": "[2]", "value": "−1556"}
    ]},
    {"smiles": "CNc1nc(NC2CCN(Cc3ccc4c(cc(C#N)n4C[C@H](C)N4CCN(S(C)(=O)=O)CC4)c3C)CC2)c2cc(CC(F)(F)F)sc2n1", "note": "[KO-539]", "values": [
      {"measurement": "pharmacokinetic properties", "setting": "[3]", "value": "excellent pharmacokinetic properties"},
      {"measurement": "toxicity profile", "setting": "[3]", "value": "low toxicity profiles"}
    ]},
    {"smiles": "CCN(C(=O)c1cc(F)ccc1Oc1cncnc1N1CC2(CCN(C[C@H]3CC[C@H](NS(=O)(=O)CC)CC3)CC2)C1)C(C)C", "note": "[SNDX-5613]", "values": [
      {"measurement": "pharmacokinetic properties", "setting": "[3]", "value": "excellent pharmacokinetic properties"},
      {"measurement": "toxicity profile", "setting": "[3]", "value": "low toxicity profiles"}
    ]},
    {"smiles": "CC[C@H]1C[C@@H](C(=O)NCCNC(=O)CCOCCOCCOCCOCCOCCOCCOCCOCCOCCOCCOCCOC)C[C@@H](O[C@@H]2O[C@H](CO)[C@H](O)[C@H](O[C@@H](CC3CCCCC3)C(=O)O)[C@H]2NC(C)=O)[C@@H]1O[C@@H]1O[C@@H](C)[C@@H](O)[C@@H](O)[C@@H]1O", "note": "[Uproleselan]", "values": [
      {"measurement": "duration of mouse survival over chemotherapy alone", "setting": "[4]", "value": "doubling the duration of mouse survival over chemotherapy alone"}
    ]},
    {"smiles": "Nc1ncn([C@@H]2O[C@H](CO)[C@@H](O)[C@H]2O)c(=O)n1", "note": "[azacitidine]", "values": [
      {"measurement": "patients who required blood transfusions and no longer needed them", "setting": "[5]", "value": "about two-thirds"}
    ]},
    {"smiles": "CC1(C)CCC(CN2CCN(c3ccc(C(=O)NS(=O)(=O)c4ccc(NCC5CCOCC5)c([N+](=O)[O-])c4)c(Oc4cnc5[nH]ccc5c4)c3)CC2)=C(c2ccc(Cl)cc2)C1", "note": "[venetoclax]", "values": [
      {"measurement": "increase of potency of venetoclax", "setting": "[6]", "value": "~ 50 -fold"}
    ]}
  ]
}
